Converted amounts (≈) assume the structure as drawn.
Key:
[1] = Partition coefficient (LogP) value was evaluated; type: physicochemical; settings: octanol/water
[2] = Tested for aqueous solubility of the compound; type: physicochemical; settings: read-out: S
[3] = Tested for pKa value of the compound; type: physicochemical
[4] = molecular target: T1, Renin (Rattus norvegicus) (UniProt P08424); test: Tested for percent inhibition against renin at 10 e-6 M concentration in rat; type: functional
T1 sequence (whole entry): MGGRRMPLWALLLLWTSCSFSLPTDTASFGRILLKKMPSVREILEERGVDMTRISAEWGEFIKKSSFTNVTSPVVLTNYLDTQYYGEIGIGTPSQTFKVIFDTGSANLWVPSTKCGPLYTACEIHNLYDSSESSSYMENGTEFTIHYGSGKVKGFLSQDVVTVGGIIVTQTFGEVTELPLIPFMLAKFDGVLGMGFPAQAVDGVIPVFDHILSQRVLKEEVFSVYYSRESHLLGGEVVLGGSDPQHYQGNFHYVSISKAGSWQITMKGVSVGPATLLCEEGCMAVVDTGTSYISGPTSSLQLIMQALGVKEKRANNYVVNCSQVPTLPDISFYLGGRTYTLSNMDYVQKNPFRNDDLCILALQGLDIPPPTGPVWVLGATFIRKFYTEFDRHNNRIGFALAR

[5] = molecular target: T1, Renin (Rattus norvegicus); test: Tested for % inhibition against renin at 10E-6 M concentration; type: functional

Row | Structure (SMILES) | logP [1] | solubility [2] | pKa [3] | inhibition [4] | inhibition [5]
1 | CC(C)C[C@H](O)[C@H](O)[C@H](CC1CCCCC1)NC(=O)[C@H](Cc1csc(N)n1)NC(=O)[C@H](Cc1ccccc1)NS(=O)(=O)N1CCOCC1 | 3.1 | 10 µg/mL (≈ 14.1 µM) | 6.3 | – | –
2 | CC(C)C[C@H](O)[C@H](O)[C@H](CC1CCCCC1)NC(=O)OC(C)(C)C | 4 | < 20 µg/mL | – | 0% | –
3 | CC(C)C[C@H](O)[C@H](O)[C@@H](N)CC1CCCCC1 | 2 | 5870 µg/mL (≈ 24100 µM) | 9.3 | – | 0%
